In assay [1] the target is Human GLP-1 receptors (Homo sapiens, UniProt P43220). Put plainly: GLP-1 receptor activation assay (CRE-luciferase reporter, CHO-K1). (In general: Reporter assays use an easily measured gene product as a stand-in for the process of interest.)
Procedure: Then, the resulting increased luciferase activity was evaluated as a measurement of the effect on each receptor activation.
After 3 hours of transfection, medium was exchanged to Alpha Minimal Essential Medium (α-MEM) comprising 10% fetal bovine serum (FBS). Next day, the medium was exchanged to α-MEM comprising the analog of the present invention and 0.1% bovine serum albumin (BSA). After 6 hours, dual luciferase assay reagent was added in the same amount as the medium in which the cells were submerged, and firefly luciferase and Renilla luciferase activities were continuously measured. Firefly luciferase activity values were corrected against Renilla luciferase activity to yield transfection efficiency.
Assay [2] addresses Human glucagon receptors (Homo sapiens, UniProt P47871). Put plainly: Glucagon receptor activation assay (CRE-luciferase reporter, CHO-K1).

In US11713344B2 (DONG-A ST CO., LTD., priority 2017, dated 2023) one finds EC50 data, which are given here for nine compounds.

pEC50: −log10 of the molar value. *1 amine or outer side, *2 acyl side, *3 side chain or, on linkers, in order; H or OH if unused. Where a SMILES comes first, the peptide text is derived from it. Side-chain parts run from the residue outwards. [ ]: non-standard residue; d: D form. The star is where a group is joined. γGlu = O=C(O)[C@H](CCC(=O)[*:2])N[*:1]; Stearoyl = CCCCCCCCCCCCCCCCCC(=O)*; AEEA = NCCOCCOCC(=O)O; Aib = CC(C)(N)C(=O)O

Sequence of Human GLP-1 receptors (P43220 24-463): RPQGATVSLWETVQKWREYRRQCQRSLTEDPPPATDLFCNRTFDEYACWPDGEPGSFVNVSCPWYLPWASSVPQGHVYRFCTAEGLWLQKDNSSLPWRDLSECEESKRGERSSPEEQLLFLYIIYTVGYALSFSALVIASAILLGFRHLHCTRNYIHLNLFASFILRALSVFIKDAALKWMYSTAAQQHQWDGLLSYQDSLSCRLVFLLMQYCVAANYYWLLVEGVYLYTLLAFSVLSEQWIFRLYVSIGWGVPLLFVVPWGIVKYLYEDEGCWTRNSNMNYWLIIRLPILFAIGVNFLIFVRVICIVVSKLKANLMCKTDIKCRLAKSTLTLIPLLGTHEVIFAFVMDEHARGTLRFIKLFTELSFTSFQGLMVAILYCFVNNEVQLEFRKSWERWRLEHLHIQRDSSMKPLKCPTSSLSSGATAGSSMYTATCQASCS
Sequence of Human glucagon receptors (P47871 26-477): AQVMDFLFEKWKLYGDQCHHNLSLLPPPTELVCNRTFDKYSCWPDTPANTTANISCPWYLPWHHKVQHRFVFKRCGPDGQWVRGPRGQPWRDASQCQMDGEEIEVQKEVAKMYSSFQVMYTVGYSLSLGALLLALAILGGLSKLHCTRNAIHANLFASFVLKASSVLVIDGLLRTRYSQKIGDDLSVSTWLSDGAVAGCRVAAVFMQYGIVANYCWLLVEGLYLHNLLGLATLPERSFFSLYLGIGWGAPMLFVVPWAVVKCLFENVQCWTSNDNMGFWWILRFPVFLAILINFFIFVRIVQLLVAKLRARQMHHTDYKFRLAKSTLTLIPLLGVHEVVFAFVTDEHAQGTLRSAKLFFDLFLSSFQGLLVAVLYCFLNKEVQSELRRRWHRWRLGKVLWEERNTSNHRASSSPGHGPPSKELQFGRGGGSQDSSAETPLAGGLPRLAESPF

The pEC50 is the EC50 on a negative log10 scale, so that one unit is a factor of ten. A lower pEC50 goes with a high EC50. On to `CCCCCCCCCCCCCCCCCC(=O)N[C@@H](CCC(=O)NCCOCCOCC(=O)NCCOCCOCC(=O)NCCCC[C@H](NC(=O)[C@H](CC(=O)O)NC(=O)[C@H](CO)NC(=O)[C@@H](NC(=O)[C@H](Cc1ccccc1)NC(=O)[C@@H](NC(=O)CNC(=O)[C@H](CCC(N)=O)NC(=O)C(C)(C)NC(=O)[C@@H](N)Cc1c[nH]cn1)[C@@H](C)O)[C@@H](C)O)C(=O)N[C@@H](CO)C(=O)N[C@@H](CCCCN)C(=O)N[C@@H](Cc1ccc(O)cc1)C(=O)N[C@@H](CC(C)C)C(=O)N[C@@H](CC(=O)O)C(=O)N[C@H]1CC(=O)N[C@@H](CC(C)C)C(=O)NCCCC[C@@H](C(=O)N[C@@H](CC(=O)O)C(=O)N[C@@H](Cc2ccccc2)C(=O)N[C@H](C(=O)N[C@@H](CCC(N)=O)C(=O)N[C@@H](Cc2c[nH]c3ccccc23)C(=O)N[C@@H](CC(C)C)C(=O)N[C@@H](CCSC)C(=O)N[C@@H](CC(N)=O)C(=O)N[C@H](C(=O)N[C@@H](CCCCN)C(=O)O)[C@@H](C)O)C(C)C)NC(=O)[C@H](C)NC(=O)[C@H](CCCNC(=N)N)NC(=O)[C@H](CCCNC(=N)N)NC1=O)C(=O)O` [Compound 38, H-HAibQGTFTSDZSKYLDDRRAKDFVQWLMNTK-OH], for which the pEC50 in assay [1] and in assay [2] was > 11.00 in each case.
With `CSCC[C@H](NC(=O)[C@H](CC(C)C)NC(=O)[C@H](Cc1c[nH]c2ccccc12)NC(=O)[C@H](CCC(N)=O)NC(=O)[C@@H](NC(=O)[C@H](Cc1ccccc1)NC(=O)[C@H](CC(=O)O)NC(=O)[C@H](CCC(N)=O)NC(=O)[C@H](C)NC(=O)[C@H](CCCNC(=N)N)NC(=O)[C@H](CCCNC(=N)N)NC(=O)C(C)(C)NC(=O)[C@H](CC(=O)O)NC(=O)[C@H](CC(C)C)NC(=O)[C@H](Cc1ccc(O)cc1)NC(=O)[C@H](CCCCN)NC(=O)[C@H](CO)NC(=O)[C@H](CCCCN)NC(=O)[C@H](CC(=O)O)NC(=O)[C@H](CO)NC(=O)[C@@H](NC(=O)[C@H](Cc1ccccc1)NC(=O)[C@@H](NC(=O)CNC(=O)[C@H](CCC(N)=O)NC(=O)C(C)(C)NC(=O)[C@@H](N)Cc1c[nH]cn1)[C@@H](C)O)[C@@H](C)O)C(C)C)C(=O)N[C@@H](CC(N)=O)C(=O)N[C@H](C(=O)N[C@@H](CCCCN)C(=O)O)[C@@H](C)O` [Compound 39], the pEC50 in assay [1] and in assay [2] was < 9.00 each time.
For the compound `CCCCCCCCCCCCCCCCCC(=O)N[C@@H](CCC(=O)NCCOCCOCC(=O)NCCOCCOCC(=O)NCCCC[C@H](NC(=O)[C@H](CO)NC(=O)[C@@H](NC(=O)[C@H](Cc1ccccc1)NC(=O)[C@@H](NC(=O)CNC(=O)[C@H](CCC(N)=O)NC(=O)C(C)(C)NC(=O)[C@@H](N)Cc1c[nH]cn1)[C@@H](C)O)[C@@H](C)O)C(=O)N[C@@H](Cc1ccc(O)cc1)C(=O)N[C@@H](CO)C(=O)N[C@@H](CCCCN)C(=O)N[C@@H](Cc1ccc(O)cc1)C(=O)N[C@@H](CC(C)C)C(=O)N[C@@H](CC(=O)O)C(=O)NC(C)(C)C(=O)N[C@@H](CCCNC(=N)N)C(=O)N[C@@H](CCCNC(=N)N)C(=O)N[C@@H](C)C(=O)N[C@@H](CCC(N)=O)C(=O)N[C@@H](CC(=O)O)C(=O)N[C@@H](Cc1ccccc1)C(=O)N[C@H](C(=O)N[C@@H](CCC(N)=O)C(=O)N[C@@H](Cc1c[nH]c2ccccc12)C(=O)N[C@@H](CC(C)C)C(=O)N[C@@H](CCSC)C(=O)N[C@@H](CC(N)=O)C(=O)N[C@H](C(=O)N[C@@H](CCCCN)C(=O)O)[C@@H](C)O)C(C)C)C(=O)O` [Compound 40] (H-H[Aib]QGTFTSK([AEEA-AEEA-γGlu-Stearoyl])YSKYLD[Aib]RRAQDFVQWLMNTK-OH), the values for the pEC50 in assay [1] and in assay [2] were 9.00 to 10.00 and < 9.00, respectively.
As for `CSCC[C@H](NC(=O)[C@H](CC(C)C)NC(=O)[C@H](Cc1c[nH]c2ccccc12)NC(=O)[C@H](CCC(N)=O)NC(=O)[C@@H](NC(=O)[C@H](Cc1ccccc1)NC(=O)[C@H](CC(=O)O)NC(=O)[C@H](CCC(N)=O)NC(=O)[C@H](C)NC(=O)[C@H](CCCNC(=N)N)NC(=O)[C@H](CCCNC(=N)N)NC(=O)C(C)(C)NC(=O)[C@H](CC(=O)O)NC(=O)[C@H](CC(C)C)NC(=O)[C@H](Cc1ccc(O)cc1)NC(=O)[C@H](CCCCN)NC(=O)[C@H](CO)NC(=O)[C@H](CCCCNC(=O)COCCOCCNC(=O)COCCOCCNC(=O)CC[C@H](NC(=O)CCCCCCCCCCCCCCC(=O)O)C(=O)O)NC(=O)[C@H](CC(=O)O)NC(=O)[C@H](CO)NC(=O)[C@@H](NC(=O)[C@H](Cc1ccccc1)NC(=O)[C@@H](NC(=O)CNC(=O)[C@H](CCC(N)=O)NC(=O)C(C)(C)NC(=O)[C@@H](N)Cc1c[nH]cn1)[C@@H](C)O)[C@@H](C)O)C(C)C)C(=O)N[C@@H](CC(N)=O)C(=O)N[C@H](C(=O)N[C@@H](CCCCN)C(=O)O)[C@@H](C)O` [Compound 42], the pEC50 is 9.00 to 10.00 in assay [1] and < 9.00 in assay [2].
Regarding `CSCC[C@H](NC(=O)[C@H](CC(C)C)NC(=O)[C@H](Cc1c[nH]c2ccccc12)NC(=O)[C@H](CCC(N)=O)NC(=O)[C@@H](NC(=O)[C@H](Cc1ccccc1)NC(=O)[C@H](CC(=O)O)NC(=O)[C@H](CCC(N)=O)NC(=O)[C@H](C)NC(=O)[C@H](CCCNC(=N)N)NC(=O)[C@H](CCCNC(=N)N)NC(=O)C(C)(C)NC(=O)[C@H](CC(=O)O)NC(=O)[C@H](CC(C)C)NC(=O)[C@H](Cc1ccc(O)cc1)NC(=O)[C@H](CCCCN)NC(=O)[C@H](CO)NC(=O)[C@H](CCCCNC(=O)COCCOCCNC(=O)COCCOCCNC(=O)CC[C@H](NC(=O)CCCCCCCCCCCCCCCCC(=O)O)C(=O)O)NC(=O)[C@H](CC(=O)O)NC(=O)[C@H](CO)NC(=O)[C@@H](NC(=O)[C@H](Cc1ccccc1)NC(=O)[C@@H](NC(=O)CNC(=O)[C@H](CCC(N)=O)NC(=O)C(C)(C)NC(=O)[C@@H](N)Cc1c[nH]cn1)[C@@H](C)O)[C@@H](C)O)C(C)C)C(=O)N[C@@H](CC(N)=O)C(=O)N[C@H](C(=O)N[C@@H](CCCCN)C(=O)O)[C@@H](C)O` [Compound 43], the pEC50 in assay [1] and in assay [2] was < 9.00 in each case.
As to `CSCC[C@H](NC(=O)[C@H](CC(C)C)NC(=O)[C@H](Cc1c[nH]c2ccccc12)NC(=O)[C@H](CCC(N)=O)NC(=O)[C@@H](NC(=O)[C@H](Cc1ccccc1)NC(=O)[C@H](CC(=O)O)NC(=O)[C@H](CCC(N)=O)NC(=O)[C@H](C)NC(=O)[C@H](CCCNC(=N)N)NC(=O)[C@H](CCCNC(=N)N)NC(=O)C(C)(C)NC(=O)[C@H](CC(=O)O)NC(=O)[C@H](CC(C)C)NC(=O)[C@H](Cc1ccc(O)cc1)NC(=O)[C@H](CCCCN)NC(=O)[C@H](CO)NC(=O)[C@H](CCCCNC(=O)COCCOCCNC(=O)COCCOCCNC(=O)CC[C@H](NC(=O)CCCCCCCCCCCCCCCCCCC(=O)O)C(=O)O)NC(=O)[C@H](CC(=O)O)NC(=O)[C@H](CO)NC(=O)[C@@H](NC(=O)[C@H](Cc1ccccc1)NC(=O)[C@@H](NC(=O)CNC(=O)[C@H](CCC(N)=O)NC(=O)C(C)(C)NC(=O)[C@@H](N)Cc1c[nH]cn1)[C@@H](C)O)[C@@H](C)O)C(C)C)C(=O)N[C@@H](CC(N)=O)C(=O)N[C@H](C(=O)N[C@@H](CCCCN)C(=O)O)[C@@H](C)O` [Compound 44], the pEC50 in assay [1] is 9.00 to 10.00; in assay [2], < 9.00.
With `CSCC[C@H](NC(=O)[C@H](CC(C)C)NC(=O)[C@H](Cc1c[nH]c2ccccc12)NC(=O)[C@H](CCC(N)=O)NC(=O)[C@@H](NC(=O)[C@H](Cc1ccccc1)NC(=O)[C@H](CC(=O)O)NC(=O)[C@H](CCC(N)=O)NC(=O)[C@H](C)NC(=O)[C@H](CCCNC(=N)N)NC(=O)[C@H](CCCNC(=N)N)NC(=O)C(C)(C)NC(=O)[C@H](CC(=O)O)NC(=O)[C@H](CC(C)C)NC(=O)[C@H](Cc1ccc(O)cc1)NC(=O)[C@H](CCCCN)NC(=O)[C@H](CO)NC(=O)[C@H](CCCCNC(=O)COCCOCCNC(=O)COCCOCCNC(=O)CC[C@H](NC(=O)CCCCCCCCCCCCCCC(=O)NCC(=O)O)C(=O)O)NC(=O)[C@H](CC(=O)O)NC(=O)[C@H](CO)NC(=O)[C@@H](NC(=O)[C@H](Cc1ccccc1)NC(=O)[C@@H](NC(=O)CNC(=O)[C@H](CCC(N)=O)NC(=O)C(C)(C)NC(=O)[C@@H](N)Cc1c[nH]cn1)[C@@H](C)O)[C@@H](C)O)C(C)C)C(=O)N[C@@H](CC(N)=O)C(=O)N[C@H](C(=O)N[C@@H](CCCCN)C(=O)O)[C@@H](C)O` [Compound 45], the negative-log EC50 (pEC50) in assay [1] and in assay [2] was 9.00 to 10.00 in each case.
Regarding `CSCC[C@H](NC(=O)[C@H](CC(C)C)NC(=O)[C@H](Cc1c[nH]c2ccccc12)NC(=O)[C@H](CCC(N)=O)NC(=O)[C@@H](NC(=O)[C@H](Cc1ccccc1)NC(=O)[C@H](CC(=O)O)NC(=O)[C@H](CCC(N)=O)NC(=O)[C@H](C)NC(=O)[C@H](CCCNC(=N)N)NC(=O)[C@H](CCCNC(=N)N)NC(=O)C(C)(C)NC(=O)[C@H](CC(=O)O)NC(=O)[C@H](CC(C)C)NC(=O)[C@H](Cc1ccc(O)cc1)NC(=O)[C@H](CCCCN)NC(=O)[C@H](CO)NC(=O)[C@H](CCCCNC(=O)COCCOCCNC(=O)COCCOCCNC(=O)CC[C@H](NC(=O)CCCCCCCCCCCCCCC(=O)N[C@H](C(=O)O)C(C)C)C(=O)O)NC(=O)[C@H](CC(=O)O)NC(=O)[C@H](CO)NC(=O)[C@@H](NC(=O)[C@H](Cc1ccccc1)NC(=O)[C@@H](NC(=O)CNC(=O)[C@H](CCC(N)=O)NC(=O)C(C)(C)NC(=O)[C@@H](N)Cc1c[nH]cn1)[C@@H](C)O)[C@@H](C)O)C(C)C)C(=O)N[C@@H](CC(N)=O)C(=O)N[C@H](C(=O)N[C@@H](CCCCN)C(=O)O)[C@@H](C)O` [Compound 46], the pEC50 in assay [1] and in assay [2] was 9.00 to 10.00 throughout.
Regarding `CSCC[C@H](NC(=O)[C@H](CC(C)C)NC(=O)[C@H](Cc1c[nH]c2ccccc12)NC(=O)[C@H](CCC(N)=O)NC(=O)[C@@H](NC(=O)[C@H](Cc1ccccc1)NC(=O)[C@H](CCC(=O)O)NC(=O)[C@@H]1CCCCNC(=O)CC[C@H](NC(=O)[C@H](CC(=O)O)NC(=O)[C@H](CC(C)C)NC(=O)[C@H](Cc2ccc(O)cc2)NC(=O)[C@H](CCCCN)NC(=O)[C@H](CO)NC(=O)[C@H](Cc2ccc(O)cc2)NC(=O)[C@H](CC(=O)O)NC(=O)[C@H](CO)NC(=O)[C@@H](NC(=O)[C@H](Cc2ccccc2)NC(=O)[C@@H](NC(=O)CNC(=O)[C@H](CCC(N)=O)NC(=O)C(C)(C)NC(=O)[C@@H](N)Cc2c[nH]cn2)[C@@H](C)O)[C@@H](C)O)C(=O)N[C@@H](CCCCN)C(=O)N[C@@H](CCCNC(=N)N)C(=O)N[C@@H](C)C(=O)N1)C(C)C)C(=O)N[C@@H](CC(N)=O)C(=O)N[C@H](C(=O)N[C@@H](CCCCN)C(=O)N[C@@H](CS)C(=O)O)[C@@H](C)O` [Compound 47, reference compound], the pEC50 in assay [1] is > 11.00; in assay [2], 10.00 to 11.00.
